System: cell-free RNA (cfRNA)
Assay: Total cfRNA in plasma after whole blood storage (Qubit RNA HS fluorometric analysis)
Settings: preservative added singly on ACD-A background, 7 days at room temperature, FIG. 6
Description: Plasma was isolated and cfRNA extracted using a commercially available kit (Qiagen, QIAamp Circulating Nucleic Acid Isolation Kit). Resultant cfRNA was quantified using the Qubit RNA HS Assay (Invitrogen). Results are the mean with standard deviation from 3 healthy donors.
The working hypothesis for the container (e.g., blood collection tube) that comprises a composition of the disclosure was that cell-free RNA (cfRNA), including messenger RNA, micro-RNA, non-coding RNA, etc., is stable in blood plasma via encapsulation within extracellular vesicles (EVs). Thus, because aspects of the disclosure are directed to stabilizing draw-time concentrations of cfRNA, the goal was to maintain the initial concentration of EVs. […] In the experiments, the functional components of the RNAx BCT are the preservatives imidazolidinyl urea (IDU) and α-cyclodextrin. The experiments were designed to test whether each of the foregoing components acted singly (additive effect) or whether the combination provided an unexpected, more pronounced outcome (synergistic effect).
On the background of the basal anti-coagulant, ACD-A, each of the preservatives (i.e., IDU and α-cyclodextrin) was added singly (at the same concentration utilized in the RNAx BCT) or together. […]

## OC[C@H]1O[C@@H]2O[C@H]3[C@H](O)[C@@H](O)[C@@H](O[C@H]4[C@H](O)[C@@H](O)[C@@H](O[C@H]5[C@H](O)[C@@H](O)[C@@H](O[C@H]6[C@H](O)[C@@H](O)[C@@H](O[C@H]7[C@H](O)[C@@H](O)[C@@H](O[C@H]1[C@H](O)[C@H]2O)O[C@@H]7CO)O[C@@H]6CO)O[C@@H]5CO)O[C@@H]4CO)O[C@@H]3CO [α-cyclodextrin]
  effect on increases in total cfRNA levels (in words): did limit increases in levels of cfRNA
